Results from PubChem BioAssay AID328 (DTP/NCI, 2004).
Where “and” joins values, the source holds several entries; their conditions need not be identical. Identical values can stand only once. Toxic doses and inconclusive results are not listed.

Test system: BDF1 mice, P388 leukemia ip, median survival T/C
Experiment: NCI In Vivo Anticancer Drug Screen. Data for tumor model P388 Leukemia (intraperitoneal) in B6D2F1 (BDF1) mice
Details: endpoint: median survival time, higher = longer survival
Summary of the method: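 Vehicle-dosed animals serve as the reference; survival of compound-dosed, tumour-implanted mice is divided by it.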

[1] = dose: 100.0 mg/kg/injection, schedule: Q01DX009 (ip), vehicle: saline
[2] = dose: 100.0 mg/kg/injection, schedule: Q04DX003 (ip), vehicle: saline
[3] = dose: 200.0 mg/kg/injection, schedule: Q01DX009 (ip), vehicle: saline
[4] = dose: 200.0 mg/kg/injection, schedule: Q04DX003 (ip), vehicle: saline
[5] = dose: 25.0 mg/kg/injection, schedule: Q01DX009 (ip), vehicle: saline
[6] = dose: 50.0 mg/kg/injection, schedule: Q01DX009 (ip), vehicle: saline
[7] = dose: 400.0 mg/kg/injection, schedule: Q04DX003 (ip), vehicle: saline
[8] = dose: 100.0 mg/kg/injection, schedule: Q01DX009 (ip), vehicle: saline with Tween-80
[9] = dose: 100.0 mg/kg/injection, schedule: Q04DX003 (ip), vehicle: saline with Tween-80
[10] = dose: 200.0 mg/kg/injection, schedule: Q04DX003 (ip), vehicle: saline with Tween-80
[11] = dose: 400.0 mg/kg/injection, schedule: Q01DX009 (ip), vehicle: saline with Tween-80
[12] = dose: 400.0 mg/kg/injection, schedule: Q04DX003 (ip), vehicle: saline with Tween-80
[13] = dose: 50.0 mg/kg/injection, schedule: Q01DX005 (ip), vehicle: saline
[14] = dose: 100.0 mg/kg/injection, schedule: Q01DX005 (ip), vehicle: saline
[15] = dose: 50.0 mg/kg/injection, schedule: Q01DX009 (ip), vehicle: saline with Tween-80
[16] = dose: 200.0 mg/kg/injection, schedule: Q01DX009 (ip), vehicle: saline with Tween-80
[17] = dose: 25.0 mg/kg/injection, schedule: Q01DX009 (ip), vehicle: Klucel (hydroxypropylcellulose) (HPC)
[18] = dose: 50.0 mg/kg/injection, schedule: Q01DX009 (ip), vehicle: Klucel (hydroxypropylcellulose) (HPC)
[19] = dose: 100.0 mg/kg/injection, schedule: Q04DX003 (ip), vehicle: Klucel (hydroxypropylcellulose) (HPC)
[20] = dose: 25.0 mg/kg/injection, schedule: Q01DX009 (ip), vehicle: saline with Tween-80
[21] = dose: 12.5 mg/kg/injection, schedule: Q01DX009 (ip), vehicle: saline with Tween-80

SMILES: COC(=O)C(C(=O)OC)=C1CS(=O)(=O)C1
- T/C (dose: 100.0 mg/kg/injection, schedule: Q04DX002 (ip), vehicle: saline with Tween-80): 94 % of control
- T/C (dose: 200.0 mg/kg/injection, schedule: Q04DX002 (ip), vehicle: saline with Tween-80): 101 % of control
- T/C (dose: 400.0 mg/kg/injection, schedule: Q04DX002 (ip), vehicle: saline with Tween-80): 102 % of control

SMILES: C#CC1(OCC2CO2)CCCCC1 (centres undefined)
- T/C [1]: 92 % of control
- T/C [2]: 110 % of control
- T/C [3]: 103 % of control
- T/C [4]: 110 % of control
- T/C (dose: 400.0 mg/kg/injection, schedule: Q01DX009 (ip), vehicle: saline): 92 % of control

SMILES: CCCCC(CCC)(CCN)CCCC
- T/C (dose: 1.0 mg/kg/injection, schedule: Q01DX009 (ip), vehicle: Klucel (hydroxypropylcellulose) (HPC)): 100 % of control
- T/C (dose: 2.0 mg/kg/injection, schedule: Q01DX009 (ip), vehicle: Klucel (hydroxypropylcellulose) (HPC)): 110 % of control
- T/C (dose: 4.0 mg/kg/injection, schedule: Q01DX009 (ip), vehicle: Klucel (hydroxypropylcellulose) (HPC)): 105 % of control
- T/C (dose: 8.0 mg/kg/injection, schedule: Q01DX009 (ip), vehicle: Klucel (hydroxypropylcellulose) (HPC)): 115 % of control

SMILES: CCOC(=O)CCN1CCCCCC1
- T/C [5]: 91 % of control
- T/C [6]: 120 % of control
- T/C [1]: 95 % of control
- T/C [2]: 100 % of control
- T/C [3]: 92 % of control
- T/C [4]: 100 % of control
- T/C [7]: 118 % of control

SMILES: [Cl][Pt+2]([Cl])([Cl])[Cl].[Na+].[S-]c1ncnc2nc[nH]c12.[S-]c1ncnc2nc[nH]c12
- T/C [8]: 120 % of control
- T/C [9]: 100 % of control
- T/C [10]: 100 % of control
- T/C (dose: 300.0 mg/kg/injection, schedule: Q01DX009 (ip), vehicle: saline with Tween-80): 113 % of control
- T/C [11]: 112 % of control
- T/C [12]: 122 % of control

SMILES: C[N+]1(C2CCC3CCC2C3O)CCOCC1 (centres undefined)
- T/C (dose: 12.5 mg/kg/injection, schedule: Q01DX009 (ip), vehicle: saline): 91 % of control and 92 % of control
- T/C [5]: 100 % of control
- T/C [6]: 91 % of control and 92 % of control
- T/C [2]: 100 % of control and 90 % of control
- T/C [4]: 90 % of control

SMILES: CC(C)CN1CC(=O)N2CCCN2C(=O)C1
- T/C [13]: 94 % of control
- T/C [14]: 108 % of control
- T/C (dose: 200.0 mg/kg/injection, schedule: Q01DX005 (ip), vehicle: saline): 103 % of control

SMILES: O=C(NO)/C(Cc1ccccc1)=N/O
- T/C [15]: 99 % of control
- T/C [8]: 104 % of control
- T/C [16]: 98 % of control

SMILES: ICC1(CI)CCCCC1
- T/C (dose: 100.0 mg/kg/injection, schedule: Q01DX001 (ip), vehicle: saline with Tween-80): 100 % of control
- T/C (dose: 200.0 mg/kg/injection, schedule: Q01DX001 (ip), vehicle: saline with Tween-80): 108 % of control

SMILES: C[C@]1(O)CC[C@H]2[C@@H]3CCC4=CC(=O)CC[C@]4(C)[C@@]3(F)C(=O)C[C@@]21C
- T/C (dose: 12.5 mg/kg/injection, schedule: Q01DX009 (ip), vehicle: Klucel (hydroxypropylcellulose) (HPC)): 104 % of control
- T/C [17]: 109 % of control
- T/C [18]: 90 % of control
- T/C [19]: 100 % of control
- T/C (dose: 200.0 mg/kg/injection, schedule: Q04DX003 (ip), vehicle: Klucel (hydroxypropylcellulose) (HPC)): 100 % of control
- T/C (dose: 400.0 mg/kg/injection, schedule: Q04DX003 (ip), vehicle: Klucel (hydroxypropylcellulose) (HPC)): 104 % of control

SMILES: CC(CS(=O)(=O)O)N1CCOCC1 (centres undefined)
- T/C [1]: 91 % of control
- T/C [2]: 104 % of control
- T/C [3]: 104 % of control
- T/C [4]: 100 % of control
- T/C [7]: 95 % of control

SMILES: CCCCCCCCSP(=S)(N1CC1)N1CC1
- T/C [8]: 90 % of control
- T/C [9]: 88 % of control
- T/C [16]: 100 % of control
- T/C [10]: 94 % of control
- T/C [11]: 95 % of control
- T/C [12]: 88 % of control

SMILES: Cc1cc(C)c2c(=O)[nH][nH]c2n1
- T/C [8]: 96 % of control
- T/C [16]: 100 % of control
- T/C [11]: 94 % of control

SMILES: c1ccc2c(c1)[nH]c1c2c[n+]2c3c(cccc13)CCC2
- T/C (dose: 3.13 mg/kg/injection, schedule: Q01DX009 (ip), vehicle: saline): 119 % of control
- T/C (dose: 3.66 mg/kg/injection, schedule: Q01DX009 (ip), vehicle: saline): 110 % of control
- T/C (dose: 5.49 mg/kg/injection, schedule: Q01DX009 (ip), vehicle: saline): 105 % of control
- T/C (dose: 6.25 mg/kg/injection, schedule: Q01DX009 (ip), vehicle: saline): 104 % of control

SMILES: N#CCC(N)=C(C#N)C#N
- T/C [17]: 100 % of control
- T/C (dose: 25.0 mg/kg/injection, schedule: Q04DX003 (ip), vehicle: Klucel (hydroxypropylcellulose) (HPC)): 95 % of control
- T/C [18]: 87 % of control
- T/C (dose: 50.0 mg/kg/injection, schedule: Q04DX003 (ip), vehicle: Klucel (hydroxypropylcellulose) (HPC)): 104 % of control
- T/C (dose: 100.0 mg/kg/injection, schedule: Q01DX009 (ip), vehicle: Klucel (hydroxypropylcellulose) (HPC)): 95 % of control
- T/C [19]: 100 % of control and 104 % of control

SMILES: NC(N)=NCCCCC(=O)Nc1ccc(S(N)(=O)=O)cc1
- T/C [5]: 97 % of control
- T/C [6]: 112 % of control
- T/C [1]: 110 % of control

SMILES: CC1(C)COC(C)(C(=O)NN)OC1
- T/C (dose: 100.0 mg/kg/injection, schedule: Q04DX002 (ip), vehicle: saline): 104 % of control
- T/C (dose: 200.0 mg/kg/injection, schedule: Q04DX002 (ip), vehicle: saline): 101 % of control
- T/C (dose: 400.0 mg/kg/injection, schedule: Q04DX002 (ip), vehicle: saline): 92 % of control

SMILES: OC1CCCCCCCCC1Cl (centres undefined)
- T/C [20]: 104 % of control
- T/C [15]: 109 % of control
- T/C [8]: 100 % of control

SMILES: C[C@]12C=CC(=O)C=C1CC[C@@H]1[C@@H]2CC[C@]2(C)OC(=O)CC[C@@H]12
- T/C [15]: 100 % of control
- T/C [8]: 86 % of control
- T/C [9]: 90 % of control
- T/C [16]: 90 % of control
- T/C [10]: 90 % of control

SMILES: CCN(CC)CCCC(C)NC(=O)c1ccc2c(c1)C(=O)c1ccccc1C2=O (centres undefined)
- T/C [13]: 98 % of control
- T/C [14]: 89 % of control

SMILES: c1ccc2c(c1)ccc1cc3cc(NCCCCNc4ccc5nc6c(ccc7ccccc76)cc5c4)ccc3nc12
- T/C (dose: 1.56 mg/kg/injection, schedule: Q01DX009 (ip), vehicle: saline with Tween-80): 108 % of control
- T/C (dose: 3.13 mg/kg/injection, schedule: Q01DX009 (ip), vehicle: saline with Tween-80): 105 % of control
- T/C (dose: 6.25 mg/kg/injection, schedule: Q01DX009 (ip), vehicle: saline with Tween-80): 108 % of control

SMILES: O=C(Nc1ccc(C2=NCCN2)cc1)Nc1cccc(NC(=O)Nc2cccc(C3=NCCN3)c2)c1
- T/C [21]: 150 % of control
- T/C (dose: 16.5 mg/kg/injection, schedule: Q04DX003 (ip), vehicle: saline with Tween-80): 266 % of control and 170 % of control
- T/C [20]: 105 % of control
- T/C (dose: 25.0 mg/kg/injection, schedule: Q04DX003 (ip), vehicle: saline with Tween-80): 250 % of control and 190 % of control and 200 % of control
- T/C (dose: 37.5 mg/kg/injection, schedule: Q04DX003 (ip), vehicle: saline with Tween-80): 283 % of control and 185 % of control
- T/C [15]: 90 % of control
- T/C (dose: 50.0 mg/kg/injection, schedule: Q04DX003 (ip), vehicle: saline with Tween-80): 177 % of control

SMILES: Cn1c2nc(=O)n(-c3ccccc3)c(=O)c-2nc2ccccc21
- T/C [21]: 95 % of control
- T/C [20]: 104 % of control
- T/C [15]: 91 % of control and 95 % of control

SMILES: COC1=C(N)C(=O)c2ncccc2C1=O
- T/C (dose: 4.0 mg/kg/injection, schedule: Q01DX010 (ip), vehicle: acetone): 113 % of control
- T/C (dose: 8.0 mg/kg/injection, schedule: Q01DX010 (ip), vehicle: acetone): 109 % of control
